These results are taken from patent US12612380B2, “Non-lysosomal glucosylceramidase inhibitors and uses thereof” (ALECTOS THERAPEUTICS INC., priority 2019, dated 2026).

What is called IC50 is the point on the concentration scale where inhibition reaches its midpoint.

The target of the test is T1, GBA2 (Homo sapiens, UniProt Q9HCG7).
T1 sequence (Q9HCG7 1-927): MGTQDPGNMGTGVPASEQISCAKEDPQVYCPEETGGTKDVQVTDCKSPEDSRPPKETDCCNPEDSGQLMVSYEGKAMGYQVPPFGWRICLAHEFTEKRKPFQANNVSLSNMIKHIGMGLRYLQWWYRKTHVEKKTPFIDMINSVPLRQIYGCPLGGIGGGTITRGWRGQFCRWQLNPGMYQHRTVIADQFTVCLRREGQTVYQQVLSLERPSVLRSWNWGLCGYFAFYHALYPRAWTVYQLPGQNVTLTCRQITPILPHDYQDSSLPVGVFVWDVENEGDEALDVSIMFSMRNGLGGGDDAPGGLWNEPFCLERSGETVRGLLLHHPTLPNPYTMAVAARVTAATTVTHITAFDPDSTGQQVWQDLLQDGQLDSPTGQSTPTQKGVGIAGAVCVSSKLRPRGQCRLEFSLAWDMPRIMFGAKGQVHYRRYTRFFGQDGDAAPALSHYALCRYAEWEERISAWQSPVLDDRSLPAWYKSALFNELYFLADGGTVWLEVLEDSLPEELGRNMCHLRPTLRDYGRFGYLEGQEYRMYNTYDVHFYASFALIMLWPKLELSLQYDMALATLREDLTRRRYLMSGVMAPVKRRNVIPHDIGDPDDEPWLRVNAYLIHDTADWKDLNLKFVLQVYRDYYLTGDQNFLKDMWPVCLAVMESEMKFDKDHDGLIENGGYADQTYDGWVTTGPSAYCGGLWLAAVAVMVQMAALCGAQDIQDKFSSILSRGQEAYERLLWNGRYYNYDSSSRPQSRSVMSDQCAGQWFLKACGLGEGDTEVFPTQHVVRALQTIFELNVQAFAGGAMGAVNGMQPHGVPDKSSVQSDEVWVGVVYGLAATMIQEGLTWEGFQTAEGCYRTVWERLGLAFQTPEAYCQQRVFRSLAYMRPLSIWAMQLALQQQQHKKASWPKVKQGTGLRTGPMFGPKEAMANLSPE
The test is described as follows: Determination of IC50 values for inhibition of GBA2 in cell lysate. The note with it: cellular homogenate of HEK293T cells overexpressing human GBA2, 250 μM 4-methylumbelliferone-β-D glucopyranoside, pH 5.5, 37° C., GCase inhibitor present; read-out: GBA2 IC50. The test is classed as biochemical. Also noted: host or cells: HEK293T (lentiviral transduction, puromycin selection); used as cellular homogenate. In short, it runs like this: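 Fluorogenic 4-MU-β-glucoside (250 μM) turnover over 20 min at 37 °C, pH 5.5, measured after NaOH/glycine stop (ex 365, em 450 nm). Enzyme source: lysate (0.083 mg/mL) of lentivirally transduced GBA2-HEK293T, GCase blocked by 20 μM azaspiro-octanediol; compound preincubated 5 min; IC50 = 50% inhibition concentration.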

As to `C[C@@H]1[C@@H](O)[C@H](O)[C@@H](O)CN1CC1CCN(C(=O)C2CCC2)CC1` [Example 99, cyclobutyl(4-(((2R,3R,4R,5S)-3,4,5-trihydroxy-2-methylpiperidin-1-yl)methyl)piperidin-1-yl)methanone], the IC50 lay in the range of 100 to 1000 nM.

As for `C[C@@H]1[C@@H](O)[C@H](O)[C@@H](O)CN1CC1CCN(C(=O)C2CCCC2)CC1` [Example 100, cyclopentyl(4-(((2R,3R,4R,5S)-3,4,5-trihydroxy-2-methylpiperidin-1-yl)methyl)piperidin-1-yl)methanone], the concentration for half-maximal inhibition (IC50) was in the range of 100 to 1000 nM.

For `C[C@@H]1[C@@H](O)[C@H](O)[C@@H](O)CN1CC1CCN(C(=O)C2CCCCC2)CC1` [Example 101, cyclohexyl(4-(((2R,3R,4R,5S)-3,4,5-trihydroxy-2-methylpiperidin-1-yl)methyl)piperidin-1-yl)methanone], the IC50 fell in the range of 100 to 1000 nM.

`C[C@@H]1[C@@H](O)[C@H](O)[C@@H](O)CN1CC1CCN(C(=O)[C@H]2CC[C@@H](C(C)(C)C)CC2)CC1` [Example 102, ((1s,4S)-4-(tert-butyl)cyclohexyl)(4-(((2R,3R,4R,5S)-3,4,5-trihydroxy-2-methylpiperidin-1-yl)methyl)piperidin-1-yl)methanone]: the half-inhibitory concentration (IC50) is under 100 nM.

With `C[C@@H]1[C@@H](O)[C@H](O)[C@@H](O)CN1CC1CCN(C(=O)[C@H]2CC[C@H](C(C)(C)C)CC2)CC1` [Example 103, ((1r,4R)-4-(tert-butyl)cyclohexyl)(4-(((2R,3R,4R,5S)-3,4,5-trihydroxy-2-methylpiperidin-1-yl)methyl)piperidin-1-yl)methanone], the IC50 is under 100 nM.

On to `COC1CCC(C(=O)N2CCC(CN3C[C@H](O)[C@@H](O)[C@H](O)[C@H]3C)CC2)CC1` (stereo partly drawn) [Example 104, (4-methoxycyclohexyl)(4-(((2R,3R,4R,5S)-3,4,5-trihydroxy-2-methylpiperidin-1-yl)methyl)piperidin-1-yl)methanone], for which the half-inhibitory concentration (IC50) fell in the range of 1000 to 25000 nM.

With `C[C@@H]1[C@@H](O)[C@H](O)[C@@H](O)CN1CC1CCN(C(=O)C2CCC(C(F)(F)F)CC2)CC1` (stereo partly drawn) [Example 105, (4-(trifluoromethyl)cyclohexyl)(4-(((2R,3R,4R,5S)-3,4,5-trihydroxy-2-methylpiperidin-1-yl)methyl)piperidin-1-yl)methanone], the IC50 was under 100 nM.

Consider `C[C@@H]1[C@@H](O)[C@H](O)[C@@H](O)CN1CC1CCN(C(=O)c2ccccc2)CC1` [Example 106, phenyl(4-(((2R,3R,4R,5S)-3,4,5-trihydroxy-2-methylpiperidin-1-yl)methyl)piperidin-1-yl)methanone], for which the IC50 fell in the range of 100 to 1000 nM.

Consider `C[C@@H]1[C@@H](O)[C@H](O)[C@@H](O)CN1CC1CCN(C(=O)c2cccc(C(F)(F)F)c2)CC1` [Example 107, (3-(trifluoromethyl)phenyl)(4-(((2R,3R,4R,5S)-3,4,5-trihydroxy-2-methylpiperidin-1-yl)methyl)piperidin-1-yl)methanone], for which the 50% inhibitory concentration (IC50) was under 100 nM.

As for `C[C@@H]1[C@@H](O)[C@H](O)[C@@H](O)CN1CC1CCN(C(=O)Cc2ccccc2)CC1` [Example 108, 2-phenyl-1-(4-(((2R,3R,4R,5S)-3,4,5-trihydroxy-2-methylpiperidin-1-yl)methyl)piperidin-1-yl)ethanone], the IC50 lay in the range of 100 to 1000 nM.

Turning to `C[C@@H]1[C@@H](O)[C@H](O)[C@@H](O)CN1CC1CCN(C(=O)c2ccsc2)CC1` [Example 109, thiophen-3-yl(4-(((2R,3R,4R,5S)-3,4,5-trihydroxy-2-methylpiperidin-1-yl)methyl)piperidin-1-yl)methanone], the IC50 is 100 to 1000 nM.

For the compound `C[C@@H]1[C@@H](O)[C@H](O)[C@@H](O)CN1CC1CCN(C(=O)NC2CCCCC2)CC1` [Example 110, N-cyclohexyl-4-(((2R,3R,4R,5S)-3,4,5-trihydroxy-2-methylpiperidin-1-yl)methyl)piperidine-1-carboxamide], the concentration for half-maximal inhibition (IC50) is 100 to 1000 nM.

For the compound `C[C@@H]1[C@@H](O)[C@H](O)[C@@H](O)CN1CC1CCN(C(=S)NC2CCCCC2)CC1` [Example 111, N-cyclohexyl-4-(((2R,3R,4R,5S)-3,4,5-trihydroxy-2-methylpiperidin-1-yl)methyl)piperidine-1-carbothioamide], the half-inhibitory concentration (IC50) lay within 100 to 1000 nM.

For `C[C@@H]1[C@@H](O)[C@H](O)[C@@H](O)CN1CC1CN([C@H]2CCCC[C@H]2C(F)(F)F)C1` [Example 112, (2R,3R,4R,5S)-2-methyl-1-((1-((1S,2R)-2-(trifluoromethyl)cyclohexyl)azetidin-3-yl)methyl)piperidine-3,4,5-triol], the IC50 was 1000 to 25000 nM.

Take `C[C@@H]1[C@@H](O)[C@H](O)[C@@H](O)CN1C[C@H]1CCN(c2ccccc2)C1` [Example 113, (2R,3R,4R,5S)-2-methyl-1-(((R)-1-phenylpyrrolidin-3-yl)methyl)piperidine-3,4,5-triol]: the IC50 is under 100 nM.

As to `C[C@@H]1[C@@H](O)[C@H](O)[C@@H](O)CN1C[C@H]1CCN(c2cc(C(F)(F)F)ccn2)C1` [Example 121, (2R,3R,4R,5S)-2-methyl-1-(((R)-1-(4-(trifluoromethyl)pyridin-2-yl)pyrrolidin-3-yl)methyl)piperidine-3,4,5-triol], the half-maximal inhibitory concentration (IC50) is under 100 nM.

Regarding `C[C@@H]1[C@@H](O)[C@H](O)[C@@H](O)CN1C[C@H]1CCN(c2cccnc2)C1` [Example 122, (2R,3R,4R,5S)-2-methyl-1-(((R)-1-(pyridin-3-yl)pyrrolidin-3-yl)methyl)piperidine-3,4,5-triol], the half-maximal inhibitory concentration (IC50) was 1000 to 25000 nM.

`Cc1ccncc1N1CC[C@H](CN2C[C@H](O)[C@@H](O)[C@H](O)[C@H]2C)C1` [Example 123, (2R,3R,4R,5S)-2-methyl-1-(((R)-1-(4-methylpyridin-3-yl)pyrrolidin-3-yl)methyl)piperidine-3,4,5-triol]: the IC50 was in the range of 100 to 1000 nM.

In the case of `C[C@@H]1[C@@H](O)[C@H](O)[C@@H](O)CN1C[C@H]1CCN(c2cnccc2C(F)(F)F)C1` [Example 124, (2R,3R,4R,5S)-2-methyl-1-(((R)-1-(4-(trifluoromethyl)pyridin-3-yl)pyrrolidin-3-yl)methyl)piperidine-3,4,5-triol], the IC50 was under 100 nM.

As to `C[C@@H]1[C@@H](O)[C@H](O)[C@@H](O)CN1C[C@H]1CCN(c2cncc(C(F)(F)F)c2)C1` [Example 125, (2R,3R,4R,5S)-2-methyl-1-(((R)-1-(5-(trifluoromethyl)pyridin-3-yl)pyrrolidin-3-yl)methyl)piperidine-3,4,5-triol], the concentration for half-maximal inhibition (IC50) is under 100 nM.

As to `C[C@@H]1[C@@H](O)[C@H](O)[C@@H](O)CN1C[C@H]1CCN(c2cccnc2C(F)(F)F)C1` [Example 126, (2R,3R,4R,5S)-2-methyl-1-(((R)-1-(2-(trifluoromethyl)pyridin-3-yl)pyrrolidin-3-yl)methyl)piperidine-3,4,5-triol], the IC50 is under 100 nM.

For the compound `C[C@@H]1[C@@H](O)[C@H](O)[C@@H](O)CN1C[C@H]1CCN(c2cncnc2C(F)(F)F)C1` [Example 127, (2R,3R,4R,5S)-2-methyl-1-(((R)-1-(4-(trifluoromethyl)pyrimidin-5-yl)pyrrolidin-3-yl)methyl)piperidine-3,4,5-triol], the IC50 was under 100 nM.

For `C[C@@H]1[C@@H](O)[C@H](O)[C@@H](O)CN1C[C@H]1CCN(c2ccsc2)C1` [Example 128, (2R,3R,4R,5S)-2-methyl-1-(((R)-1-(thiophen-3-yl)pyrrolidin-3-yl)methyl)piperidine-3,4,5-triol], the IC50 is under 100 nM.

For `C[C@@H]1[C@@H](O)[C@H](O)[C@@H](O)CN1C[C@H]1CCN(C(=O)c2ccc(C(F)(F)F)cc2)C1` [Example 130, (4-(trifluoromethyl)phenyl)((R)-3-(((2R,3R,4R,5S)-3,4,5-trihydroxy-2-methylpiperidin-1-yl)methyl)pyrrolidin-1-yl)methanone], the IC50 is under 100 nM.

In the case of `C[C@@H]1[C@@H](O)[C@H](O)[C@@H](O)CN1C[C@@H]1CCN(c2ncccc2C(F)(F)F)C1` [Example 132, (2R,3R,4R,5S)-2-methyl-1-(((S)-1-(3-(trifluoromethyl)pyridin-2-yl)pyrrolidin-3-yl)methyl)piperidine-3,4,5-triol], the IC50 is under 100 nM.

For `C[C@@H]1[C@@H](O)[C@H](O)[C@@H](O)CN1C[C@@H]1CCN(c2cnccc2C(F)(F)F)C1` [Example 133, (2R,3R,4R,5S)-2-methyl-1-(((S)-1-(4-(trifluoromethyl)pyridin-3-yl)pyrrolidin-3-yl)methyl)piperidine-3,4,5-triol], the IC50 is under 100 nM.
